Experiment: xn = mol fraction of the nth substance listed

CC[N+](=O)[O-] + CCCO
viscosity [mPa·s], 101.33 kPa
Conditions | 293.15 K | 303.15 K | 313.15 K
x2 = 0.05 | 0.686 | 0.609 | 0.544
x2 = 0.1 | 0.683 | 0.605 | 0.539
x2 = 0.1499 | 0.69 | 0.607 | 0.539
x2 = 0.2001 | 0.702 | 0.617 | 0.547
x2 = 0.25 | 0.72 | 0.629 | 0.554
x2 = 0.3 | 0.748 | 0.647 | 0.567
x2 = 0.35 | 0.776 | 0.667 | 0.581
x2 = 0.4 | 0.808 | 0.694 | 0.609
x2 = 0.45 | 0.848 | 0.724 | 0.623
x2 = 0.5 | 0.898 | 0.758 | 0.655
x2 = 0.55 | 0.951 | 0.8 | 0.681
x2 = 0.6 | 1.016 | 0.852 | 0.718
x2 = 0.65 | 1.085 | 0.902 | 0.756
x2 = 0.7 | 1.17 | 0.967 | 0.808
x2 = 0.75 | 1.282 | 1.043 | 0.881
x2 = 0.8 | 1.391 | 1.133 | 0.947
x2 = 0.85 | 1.539 | 1.243 | 1.035
x2 = 0.9 | 1.717 | 1.377 | 1.125
x2 = 0.95 | 1.945 | 1.559 | 1.239

CC[N+](=O)[O-] + CO
viscosity [mPa·s], 101.33 kPa
Conditions | 293.15 K | 303.15 K | 313.15 K
x2 = 0.0501 | 0.657 | 0.586 | 0.527
x2 = 0.0999 | 0.634 | 0.565 | 0.508
x2 = 0.1503 | 0.617 | 0.549 | 0.493
x2 = 0.2 | 0.603 | 0.536 | 0.48
x2 = 0.25 | 0.593 | 0.526 | 0.471
x2 = 0.3 | 0.584 | 0.517 | 0.462
x2 = 0.3501 | 0.576 | 0.51 | 0.455
x2 = 0.4 | 0.57 | 0.504 | 0.448
x2 = 0.45 | 0.564 | 0.498 | 0.442
x2 = 0.5 | 0.559 | 0.493 | 0.438
x2 = 0.55 | 0.556 | 0.489 | 0.433
x2 = 0.6 | 0.553 | 0.487 | 0.43
x2 = 0.65 | 0.552 | 0.485 | 0.428
x2 = 0.6999 | 0.552 | 0.486 | 0.428
x2 = 0.75 | 0.555 | 0.486 | 0.427
x2 = 0.8 | 0.558 | 0.487 | 0.428
x2 = 0.85 | 0.562 | 0.49 | 0.43
x2 = 0.9 | 0.567 | 0.495 | 0.434
x2 = 0.95 | 0.576 | 0.501 | 0.437

Cc1ccncc1 + CO
298.15 K, 101.33 kPa
Conditions | viscosity [mPa·s]
x2 = 0.1671 | 0.8666
x2 = 0.3035 | 0.8547
x2 = 0.4194 | 0.8291
x2 = 0.5171 | 0.8161
x2 = 0.6328 | 0.7764
x2 = 0.7977 | 0.7033
x2 = 0.8892 | 0.6526
x2 = 0.967 | 0.5799

CCCCN + CCCCCO
viscosity [mPa·s], 101.33 kPa
Conditions | 303.15 K | 313.15 K | 323.15 K
x1 = 0.097 | 2.5 | 2.042 | –
x1 = 0.102 | 2.52 | 1.956 | 1.551
x1 = 0.1887 | 2.182 | 1.761 | –
x1 = 0.2002 | 2.086 | 1.639 | 1.322
x1 = 0.2883 | 1.842 | 1.49 | –
x1 = 0.2994 | 1.72 | 1.381 | 1.122
x1 = 0.388 | 1.53 | 1.264 | –
x1 = 0.4012 | 1.431 | 1.162 | 0.957
x1 = 0.5 | 1.19 | 0.976 | 0.816
x1 = 0.5146 | 1.18 | 0.9969 | –
x1 = 0.6008 | 0.996 | 0.829 | 0.697
x1 = 0.6173 | 0.9476 | 0.8283 | –
x1 = 0.6995 | 0.819 | 0.693 | 0.592
x1 = 0.7066 | 0.7962 | 0.6999 | –
x1 = 0.8002 | 0.68 | 0.583 | 0.505
x1 = 0.8075 | 0.6516 | 0.5757 | –
x1 = 0.8845 | 0.559 | 0.4945 | –
x1 = 0.8997 | 0.574 | 0.498 | 0.435

O=C(O)C(Cl)(Cl)Cl + CCOC(=O)c1ccccc1
298.15 K, 101 kPa
Conditions | viscosity [mPa·s]
x1 = 0.08874 | 2.324
x1 = 0.2096 | 2.93
x1 = 0.3125 | 3.711
x1 = 0.3982 | 4.61
x1 = 0.4907 | 5.848
x1 = 0.5795 | 7.068
x1 = 0.6758 | 8.374

O=C(O)C(Cl)(Cl)Cl + C[N+](C)(C)CCO.[Cl-]
101 kPa, x2 = 0.333
Conditions | viscosity [mPa·s]
293.15 K | 645.9
298.15 K | 435
303.15 K | 302.5
308.15 K | 216.1
313.15 K | 158.7
318.15 K | 119.2
323.15 K | 91.41

CCCCN + ClC(Cl)(Cl)Cl
viscosity [mPa·s], 101 kPa
Conditions | 293.15 K | 298.15 K | 303.15 K | 308.15 K
x1 = 0.1017 | 0.924 | 0.86 | 0.806 | 0.76
x1 = 0.1975 | 0.879 | 0.818 | 0.766 | 0.723
x1 = 0.2974 | 0.832 | 0.774 | 0.726 | 0.684
x1 = 0.3676 | 0.799 | 0.743 | 0.697 | 0.657
x1 = 0.4895 | 0.742 | 0.69 | 0.647 | 0.61
x1 = 0.5536 | 0.712 | 0.661 | 0.621 | 0.585
x1 = 0.6318 | 0.675 | 0.627 | 0.589 | 0.555
x1 = 0.6708 | 0.657 | 0.61 | 0.573 | 0.54
x1 = 0.7779 | 0.606 | 0.563 | 0.53 | 0.499
x1 = 0.8299 | 0.582 | 0.54 | 0.508 | 0.479
x1 = 0.912 | 0.543 | 0.504 | 0.475 | 0.447

O=[N+]([O-])c1ccc(O)cc1 + CCCCCOC(C)=O
Conditions | viscosity [mPa·s]
298.15 K, 101 kPa, x1 = 0.5 | 1.564

CCCCN + CCC(C)=O
303.15 K, 101.33 kPa
Conditions | viscosity [mPa·s]
x1 = 0.0943 | 0.482
x1 = 0.181 | 0.593
x1 = 0.2823 | 0.732
x1 = 0.4616 | 0.924
x1 = 0.5768 | 0.967
x1 = 0.674 | 0.914
x1 = 0.7814 | 0.819
x1 = 0.891 | 0.671
